Data taken from US20090010993A1, “Composition comprising polyphenol” (Conopco, Inc. d/b/a Unilever, priority 2007, published 2009).

System: 2nd order mesenteric resistance arteries of SHR
Assay: Reactivity of isolated arteries: dilator effect during contraction induced by 40 mmol/L K+
Set-up: species or system Spontaneously Hypertensive Rats (SHR)
Description: Segments of 2nd order mesenteric artery side branches were isolated from 14 weeks old male Spontaneously Hypertensive Rats (SHR). Two stainless-steel wires (diameter 40 μm) were inserted in the lumen of the arterial segments, which were then mounted in organ chambers between an isometric force transducer and a displacement device (Danish Myotechnology by J. P. Trading, Denmark). The organ chambers were filled with Krebs-Ringer bicarbonate solution which was maintained at 37° C. and continuously aerated with 95% O2 and 5% CO2. Before the actual experiments started, arterial segments were stretched to their individual optimal lumen diameter for mechanical performance, i.e. the diameter at which maximal contractile responses to noradrenaline (10 μmol/L) were obtained. In each experiment four second order mesenteric resistance arterial segments from one animal were mounted in individual organ chambers and studied in parallel. At the start of the experiments, all four arterial preparations were incubated during 20 min with capsaicin (1 μmol/L) to persistently desensitize sensory-motor nerves and to obtain a stable and considerable contractile response to potassium (K^+, 40 mmol/L). During all the experiments superoxide dismutase (SOD, 5 U/ml) was present, to preserve stability of the metabolites. We tested the effects of the 35 different phenolic compounds using a Plackett-Burman screening design. The experiment consisted of 5 separate saturated 8 run Plackett-burman designs. […] In this way, the effects of different exposure times to the mixtures (7, 30 and 90 min) on K+-induced contraction, could be evaluated. […] Effects of increasing concentrations of the solvent and of the mixes (0.1 to 100 umol/L) during contractile responses to 40 mmol/L K+, were calculated as % change of the level of pre-contraction. […] Responses to acetylcholine and Na-nitroprusside were analysed in terms of sensitivity (pD2=−log (M) EC50) and maximal effect (Emax) by least square sigmoidal curve fitting of individual concentration-response curves (Graphpad Prism 1.00, San Diego, Calif., USA). […]

## O=c1c(O)c(-c2ccc(O)cc2)oc2cc(O)cc(O)c12 [kaempferol, 3,5,7-trihydroxy-2-(4-hydroxyphenyl)-4H-1-benzopyran-4-one]
Rattus norvegicus, isolated mesenteric resistance arteries of SHR, pre-contracted with 40 mmol/L K+, deduced by comparing mixtures (Plackett-Burman design), corrected for solvent, read-out: EC50 of dilation of the arteries
  EC50: 3 µM
At a low concentration, isolated SHR mesenteric arteries, comparison of different mixtures
  influence on the dilation of the arteries: significant influence on the dilation of the arteries
Isolated mesenteric resistance arteries of SHR, pre-contracted with 40 mmol/L K+, range tested 0.1-100 umol/L
  concentration at which the maximum dilatation was obtained: 100 µM
